Results as given in the supplement of paper PMC10307832.

Key:
Assay in all cases: relative viability (nuclei count vs DMSO), 5 days (fraction); higher = more cells survive
BI-2536 + Tozasertib = compound: CC[C@@H]1C(=O)N(C)c2cnc(Nc3ccc(C(=O)NC4CCN(C)CC4)cc3OC)nc2N1C1CCCC1 [BI-2536] + Cc1cc(Nc2cc(N3CCN(C)CC3)nc(Sc3ccc(NC(=O)C4CC4)cc3)n2)n[nH]1 [Tozasertib] (partner 0.1 µM)
Method in brief: (§1)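 Nuclei were stained with Hoechst during a one-step fixation (final 0.05% Triton X-100, 1% formaldehyde, 1 ug/ml Hoechst) carried out 5 days after dosing, then counted on 4× images. The cells, lung cancer lines in 1536-well plates, had been dosed by pin tool the day after seeding with one drug alone or a fixed anchor-drug dose plus five library-drug doses (not always all listed) in √10 steps. Relative viability is the nuclei count in treated wells divided by that in vehicle wells, and each value is the median of duplicate plates.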

BI-2536 + Phenformin = compound: CC[C@@H]1C(=O)N(C)c2cnc(Nc3ccc(C(=O)NC4CCN(C)CC4)cc3OC)nc2N1C1CCCC1 [BI-2536] + N=C(N)NC(=N)NCCc1ccccc1 [Phenformin] (partner 250 µM)
Method in brief: as §1

BI-2536 + Alpelisib = compound: CC[C@@H]1C(=O)N(C)c2cnc(Nc3ccc(C(=O)NC4CCN(C)CC4)cc3OC)nc2N1C1CCCC1 [BI-2536] + Cc1nc(NC(=O)N2CCC[C@H]2C(N)=O)sc1-c1ccnc(C(C)(C)C(F)(F)F)c1 [Alpelisib] (partner 2 µM)
Method in brief: as §1

BI-2536 + Palbociclib = compound: CC[C@@H]1C(=O)N(C)c2cnc(Nc3ccc(C(=O)NC4CCN(C)CC4)cc3OC)nc2N1C1CCCC1 [BI-2536] + CC(=O)c1c(C)c2cnc(Nc3ccc(N4CCNCC4)cn3)nc2n(C2CCCC2)c1=O [Palbociclib] (partner 0.5 µM)
Method in brief: as §1

Row | Cell Line | relative viability (BI-2536 + Tozasertib; first compound 0.01 µM) | relative viability (BI-2536 + Tozasertib; first compound 0.03162 µM) | relative viability (BI-2536 + Tozasertib; first compound 0.1 µM) | relative viability (BI-2536 + Tozasertib; first compound 0.3162 µM) | relative viability (BI-2536 + Tozasertib; first compound 1 µM) | relative viability (BI-2536 + Phenformin; first compound 0.01 µM) | relative viability (BI-2536 + Phenformin; first compound 0.03162 µM) | relative viability (BI-2536 + Phenformin; first compound 0.1 µM) | relative viability (BI-2536 + Phenformin; first compound 0.3162 µM) | relative viability (BI-2536 + Phenformin; first compound 1 µM) | relative viability (BI-2536 + Alpelisib; first compound 0.01 µM) | relative viability (BI-2536 + Alpelisib; first compound 0.03162 µM) | relative viability (BI-2536 + Alpelisib; first compound 0.1 µM) | relative viability (BI-2536 + Alpelisib; first compound 0.3162 µM) | relative viability (BI-2536 + Alpelisib; first compound 1 µM) | relative viability (BI-2536 + Palbociclib; first compound 0.01 µM) | relative viability (BI-2536 + Palbociclib; first compound 0.03162 µM) | relative viability (BI-2536 + Palbociclib; first compound 0.1 µM) | relative viability (BI-2536 + Palbociclib; first compound 0.3162 µM) | relative viability (BI-2536 + Palbociclib; first compound 1 µM)
1 | NCI-H727 | 0.646 | 0.695 | 0.672 | 0.496 | 0.392 | 0.529 | 0.527 | 0.386 | 0.319 | 0.313 | 0.616 | 0.636 | 0.453 | 0.245 | 0.238 | 0.708 | 0.613 | 0.701 | 0.615 | 0.437
2 | LU99A | 0.272 | 0.235 | 0.248 | 0.281 | 0.227 | 0.816 | 0.823 | 0.212 | 0.197 | 0.2 | 0.53 | 0.515 | 0.209 | 0.146 | 0.179 | 0.37 | 0.445 | 0.318 | 0.152 | 0.147
3 | EBC-1 |  |  |  |  |  |  |  |  |  |  | 0.852 | 0.799 | 0.564 | 0.175 | 0.179 |  |  |  |  | 
4 | NCI-H1623 | 0.478 | 0.448 | 0.383 | 0.402 | 0.328 | 0.564 | 0.54 | 0.556 | 0.445 | 0.588 |  |  |  |  |  |  |  |  |  | 
5 | NCI-H2342 | 0.449 | 0.508 | 0.468 | 0.378 | 0.294 | 0.547 | 0.586 | 0.649 | 0.283 | 0.341 |  |  |  |  |  |  | 0.553 | 0.542 | 0.394 | 0.397
6 | SW 900 | 0.566 | 0.694 | 0.418 | 0.278 | 0.173 | 0.683 | 0.564 | 0.493 | 0.106 | 0.146 |  |  |  |  |  | 0.549 | 0.487 | 0.471 | 0.313 | 0.219
7 | NCI-H1563 |  |  |  |  |  | 0.719 | 0.63 | 0.683 | 0.525 | 0.498 | 0.858 | 0.933 | 0.928 | 0.598 | 0.583 |  |  |  |  | 
8 | NCI-H1299 |  |  |  |  |  |  |  |  |  |  | 0.952 | 1.15 | 1 | 0.278 | 0.339 |  |  |  |  | 
9 | NCI-H522 | 0.488 | 0.581 | 0.634 | 0.447 | 0.412 | 0.525 | 0.641 | 0.404 | 0.446 | 0.401 |  |  |  |  |  | 1 | 0.922 | 1.13 | 0.4 | 0.303
10 | A549 |  |  |  |  |  | 0.143 | 0.132 | 0.0229 | 0.0377 | 0.0372 | 0.767 | 0.814 | 0.698 | 0.0447 | 0.0443 |  |  |  |  | 
11 | NCI-H1648 | 0.437 | 0.414 | 0.336 | 0.159 | 0.22 |  |  |  |  |  |  |  |  |  |  | 0.288 | 0.131 | 0.251 | 0.229 | 0.29
12 | IA-LM |  |  |  |  |  |  |  |  |  |  | 0.729 | 0.652 | 0.588 | 0.0728 | 0.0917 |  |  |  |  | 
13 | ChaGo-K-1 | 0.216 | 0.227 | 0.219 | 0.211 | 0.239 | 0.492 | 0.507 | 0.238 | 0.158 | 0.148 |  |  |  |  |  | 0.908 | 0.845 | 0.785 | 0.187 | 0.188
